Columns and labels:
beta amyloid 40 = assay: Aβ40/42 ELISA Assay: Aβ40; assay type: cell-based; conditions: Cricetulus griseus; CHO cells carrying the APP-REP-NL plasmid, 22 hours, sandwich ELISA of medium
Procedure: (§1) Pharmacology: Aβ40/42 ELISA Assay
(§2) Compounds are diluted from DMSO stocks to 2 μM and below in a cell culture medium. Compounds are then applied to CHO cells carrying the APP-REP-NL plasmid [Sudhir et. al, J. Biol. Chem. 267:25602-25608 (1992)] for a period of 22 hours. After the conditioning period, medium is collected, diluted in assay buffer containing protein, and samples, controls, and synthetic peptide standards are incubated on a prepared ELISA plate. Using a sandwich ELISA with antibodies specifically directed against the carboxyl terminus of beta amyloid 40 or 42 [analogous to the method reported by Haugabook et al., J. Neurosci. Methods 108:171-179 (2001) but using goat anti-mouse IgGl (source: Southern Biotech) as the anchor, 6E10 as the capture antibody (Source: SENETEK), rabbit antiαβ40 and antiαβB42 (source: QCB) and APL-donkey anti-rabbit IgG (H+L, source: Southern Biotech) as the detection antibody], the effect of the compound treatment on the cellular production of extracellular beta amyloid is quantified. Cells treated with compound are subsequently incubated in cell culture medium containing […]. After a short incubation period, MTS/medium containing plates are read in a spectrophotometer to determine the extent to which compound toxicity affected the cell's metabolism and ability to synthesize beta amyloid.
(§3) Test Samples: compound samples are supplied as 20 mM stock solutions in a 100% DMSO solution.
(§4) APP-REP-NL cells: Qualified cell lines are carried from week to week using 1:100 dilutions and are cultured in DMEM supplemented with 1× antibiotic/antimycotic, 200 μg/ml of G418 antibiotic, and 10% certified fetal calf serum. Cells are also banked in liquid nitrogen. Periodically, beta amyloid production is assessed, and cells are either kept in culture or replaced with progenitors at full expression.
(§5) Antibodies: Are from certified lots that have already been qualified in this assay. Antibodies are stored in small frozen aliquots at −80° C. that are thawed and used.
(§6) A compound is considered active if it has an EC50 for Aβ 40 reduction of <100 μM and no toxicity at doses in the vicinity the EC50.

beta amyloid 42 = assay: Aβ40/42 ELISA Assay: Aβ42; assay type: cell-based; conditions: Cricetulus griseus; CHO cells carrying the APP-REP-NL plasmid, 22 hours, sandwich ELISA of medium
Procedure: as §1, §2, §3, §4, §5, §6

## O=S(=O)(N[C@H](CO)C(CC(F)(F)F)CC(F)(F)F)c1ccc(Cl)cc1 [Example 2, 4-Chloro-N-[(1S)-4,4,4-trifluoro-1-hydroxymethyl-2-(2,2,2-trifluoro-ethyl)-butyl]-benzenesulfonamide]
Beta amyloid 40
  EC50: 334 nM
other
  melting point: 186 to 187 °C
Beta amyloid 42
  EC50: 204 nM

## O=S(=O)(NC(CO)C(C(F)(F)F)C(F)(F)F)c1cccc(Cl)c1Cl (centres unmarked) [Example 37, 2,3-dichloro-N-(3,3,3-trifluoro-1-hydroxymethyl-2-trifluoromethyl-propyl)-benzenesulfonamide]
Beta amyloid 40
  EC50: 11100 nM
Beta amyloid 42
  EC50: 14000 nM

## O=S(=O)(NC(CO)C(C(F)(F)F)C(F)(F)F)c1ccc(F)c(Cl)c1 (centres unmarked) [Example 39, 3-chloro-4-fluoro-N-[3,3,3-trifluoro-1-(hydroxymethyl)-2-(trifluoromethyl)propyl]benzenesulfonamide]
Beta amyloid 40
  EC50: 6720 nM
Beta amyloid 42
  EC50: 8620 nM

## C[C@@H]([C@@H](CO)NS(=O)(=O)c1ccc(Cl)cc1)C(F)(F)F [Example 43, 4-Chloro-N-[(1S,2S)-3,3,3-trifluoro-1-(hydroxymethyl)-2-methylpropyl]benzenesulfonamide]
Beta amyloid 40
  EC50: 423 nM
Beta amyloid 42
  EC50: 384 nM

## Cc1ccc(S(=O)(=O)NC(CO)C(C(F)(F)F)C(F)(F)F)cc1 (centres unmarked) [Example 14, 4-methyl-N-[3,3,3-trifluoro-1-(hydroxymethyl)-2-(trifluoromethyl)propyl]benzenesulfonamide]
Beta amyloid 40
  EC50: 1500 nM
Beta amyloid 42
  EC50: 1260 nM

## N#Cc1ccc(S(=O)(=O)NC(CO)C(C(F)(F)F)C(F)(F)F)cc1 (centres unmarked) [Example 18, 4-Cyano-N-(3,3,3-trifluoro-1-hydroxymethyl-2-trifluoromethyl-propyl)-benzenesulfonamide]
Beta amyloid 40
  EC50: 90700 nM
Beta amyloid 42
  EC50: 101000 nM

## O=S(=O)(NC(CO)C(CC(F)(F)F)CC(F)(F)F)c1ccc(Cl)cc1 (centres unmarked) [Example 45, 4-Chloro-N-[4,4,4-trifluoro-1-hydroxymethyl-2-(2,2,2-trifluoro-ethyl)-butyl]-benzenesulfonamide]
Beta amyloid 40
  EC50: 518 nM
Beta amyloid 42
  EC50: 504 nM

## O=S(=O)(NC(CO)C(C(F)(F)F)C(F)(F)F)c1ccc(F)c(F)c1 (centres unmarked) [Example 34, 3,4-difluoro-N-(3,3,3-trifluoro-1-hydroxymethyl-2-trifluoromethyl-propyl)-benzenesulfonamide]
Beta amyloid 40
  EC50: 2220 nM
Beta amyloid 42
  EC50: 2400 nM

## O=S(=O)(NC(CO)C(C(F)(F)F)C(F)(F)F)c1ccc(OC(F)(F)F)cc1 (centres unmarked) [Example 20, N-(3,3,3-trifluoro-1-hydroxymethyl-2-trifluoromethyl-propyl)-4-trifluoromethoxy-benzenesulfonamide]
Beta amyloid 40
  EC50: 8510 nM
Beta amyloid 42
  EC50: 6420 nM

## O=S(=O)(NC(CO)C(C(F)(F)F)C(F)(F)F)c1ccccc1 (centres unmarked) [Example 33, N-(3,3,3-trifluoro-1-hydroxymethyl-2-trifluoromethyl-propyl)-benzenesulfonamide]
Beta amyloid 40
  EC50: 6260 nM
Beta amyloid 42
  EC50: 7020 nM

## COc1cc(S(=O)(=O)NC(CO)C(C(F)(F)F)C(F)(F)F)ccc1Cl (centres unmarked) [Example 3, 4-Chloro-3-methoxy-N-(3,3,3-trifluoro-1-hydroxymethyl-2-trifluoromethyl-propyl)-benzenesulfonamide]
Beta amyloid 40
  EC50: 9940 nM
Beta amyloid 42
  EC50: 13800 nM

## CC(C)c1ccc(S(=O)(=O)NC(CO)C(C(F)(F)F)C(F)(F)F)cc1 (centres unmarked) [Example 10, 4-isopropyl-N-[3,3,3-trifluoro-1-(hydroxymethyl)-2-(trifluoromethyl)propyl]benzenesulfonamide]
Beta amyloid 40
  EC50: 17700 nM
Beta amyloid 42
  EC50: 44100 nM

## C[C@@H]([C@@H](CO)NS(=O)(=O)c1ccc(F)cc1)C(F)(F)F [Example 48, 4-Fluoro-N-[(1S,2S)-3,3,3-trifluoro-1-(hydroxymethyl)-2-methylpropyl]benzenesulfonamide]
Beta amyloid 40
  EC50: 651 nM
Beta amyloid 42
  EC50: 563 nM

## O=S(=O)(NC(CO)C(C(F)(F)F)C(F)(F)F)c1ccc(Cl)c(F)c1 (centres unmarked) [Example 24, 4-Chloro-3-fluoro-N-(3,3,3-trifluoro-1-hydroxymethyl-2-trifluoromethyl-propyl)-benzenesulfonamide]
Beta amyloid 40
  EC50: 1090 nM
Beta amyloid 42
  EC50: 1140 nM

## O=S(=O)(N[C@H](CO)C(C(F)(F)F)C(F)(F)F)c1ccc(Cl)cc1 [Example 1, 4-Chloro-N-[(1S)-3,3,3-trifluoro-1-(hydroxymethyl)-2-(trifluoromethyl)propyl]benzenesulfonamide]
Beta amyloid 40
  EC50: 220 nM
Beta amyloid 42
  EC50: 177 nM

## O=S(=O)(NC(CO)C(C(F)(F)F)C(F)(F)F)c1cccc(Cl)c1 (centres unmarked) [Example 29, 3-chloro-N-(3,3,3-trifluoro-1-hydroxymethyl-2-trifluoromethyl-propyl)-benzenesulfonamide]
Beta amyloid 40
  EC50: 24200 nM
Beta amyloid 42
  EC50: 37200 nM

## O=S(=O)(NC(CO)C(C(F)(F)F)C(F)(F)F)c1ccc(Br)cc1 (centres unmarked) [Example 31, 4-bromo-N-(3,3,3-trifluoro-1-hydroxymethyl-2-trifluoromethyl-propyl)-benzenesulfonamide]
Beta amyloid 40
  EC50: 886 nM
Beta amyloid 42
  EC50: 905 nM

Reference: patent publication US7550629B2, “Trifluoromethyl-containing phenylsulfonamide beta amyloid inhibitors” (Wyeth, priority 2006, dated 2009)
